BindingDB's records for doi:10.1021/cb4002552 (University of California, 2013)

Each compound was assayed against Neutrophil gelatinase-associated lipocalin (Homo sapiens, UniProt P80188) (assay: Fluorescence quenching titrations). Details: pH 7.4.
Chain of Neutrophil gelatinase-associated lipocalin (P80188 whole entry): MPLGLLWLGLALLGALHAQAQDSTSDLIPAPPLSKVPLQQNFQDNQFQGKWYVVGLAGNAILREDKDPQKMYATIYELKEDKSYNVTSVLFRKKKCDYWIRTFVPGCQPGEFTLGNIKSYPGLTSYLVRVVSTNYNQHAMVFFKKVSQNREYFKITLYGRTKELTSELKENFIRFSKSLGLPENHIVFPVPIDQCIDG
Protocol: The ligand solutions (10uM siderophore, TBS with 5% (v/v) DMSO, pH 7.4) were prepared from 4mM stock solution in DMSO. The protein solution was prepared as previously reported. Small amounts of ligand solution were mixed with the protein solution and equilibrated for at least 4 min before fluorescence measurement. The data was fit to a one-to-one binding model with two parameters, Kd and fluorescence response, using the program DYNAFIT.
`C[C@@H](O)[C@H](NC(=O)c1cccc(O)c1O)C(=O)N(CCCNC(=O)c1cccc(O)c1O)CCCNC(=O)c1cccc(O)c1O` [Fluvibactin A] was tested, and the Kd was 12 nM. `C[C@H]1OC(c2cccc(O)c2O)=N[C@@H]1C(=O)N(CCCNC(=O)c1cccc(O)c1O)CCCNC(=O)c1cccc(O)c1O` [Fluvibactin] gave a Kd of 34 nM. For `C[C@@H](O)[C@H](NC(=O)c1cccc(O)c1O)C(=O)NCCCN(CCCNC(=O)c1cccc(O)c1O)C(=O)[C@@H](NC(=O)c1cccc(O)c1O)[C@@H](C)O` [Vibriobactin A], the Kd was 18 nM.
